Data on 5 compounds can be found in patent US12655120B2, “GPR52 modulator compounds” (NXERA PHARMA UK LIMITED, priority 2020, dated 2026).

The target of one data set is T1, human GPR52 (Homo sapiens, UniProt Q9Y2T5).
T1 construct: expressed in transfected cells; host or cells: HEKf suspension cells infected with BacMam virus
Briefly: GPR52 Agonist Functional cAMP Assay. It counts as cell-based. As to conditions: for Emax: normalised to DMSO (0%) and maximal compound 7m (J. Med. Chem., 2014, 57, 5226) response (100%); for EC50: HEKf cells infected with human GPR52 BacMam, HTRF cAMP, 30 min at 37° C., read-out: pEC50 average (converted). (In general: In TR-FRET formats the signal depends on donor and acceptor labels being close together.)

Data set [1] can be described thus: Pharmacokinetic profiling in male Sprague-Dawley rats (IV and PO). As to conditions: plasma, Rat PO, 3 mg/kg, n = 3, mean ± standard deviation. It counts as in vivo. The method, then: The pharmacokinetic profiles of Example 39 were assessed in male Sprague-Dawley rats via intravenous (IV) and oral (per os, PO) routes of delivery. Pharmacokinetic data (mean values ±standard deviation) for Example 39 of the invention are detailed in Table 5.
Methods: For pharmacokinetic analysis, groups of three male Sprague-Dawley rats, ranging in weight between 200 and 230 g, were administered a single dose of Example 39 via IV or PO route, using the doses, dose volumes and vehicles specified in Table 5. Following dosing, blood samples were taken at several time points (pre-dose, 2 min, 5 min, 15 min, 30 min, 1 h, 3 h, 6 h, 12 h and 24 h for IV administration and pre-dose, 5 min, 15 min, 30 min, 1 hr, 2 h, 4 h, 8 h, 12 h and 24 h for PO administration) via serial tail vein bleeds, and centrifuged to separate plasma for analysis by LC-MS/MS. WinNonlin v8.2 statistics software (Pharsight Corporation, California, USA) was used to generate pharmacokinetic parameters using non-compartmental analysis.

For data set [2], the system named is caffeine-induced hyperlocomotor activity. Briefly: Caffeine-induced locomotor activity in rat. It counts as in vivo, male Sprague-Dawley rats. As to conditions: 0.1, 0.3, 1 and 3 mg/kg PO, 60 min before caffeine 15 mg/kg s.c.; statistical significance at 1 and 3 mg/kg. From the text:
Caffeine, a non-selective adenosine receptor antagonist, is a psychostimulant which increases rodent locomotor activity principally via blockade of A2A receptors (Br. J. Pharmacol., 2000, 129, 1465). These receptors are densely expressed on the terminals of GABAergic striatopallidal neurons in the indirect pathway of the basal ganglia, in which dopamine D2 receptors are co-expressed (J. Comp. Neurol., 1998, 401, 163; J. Comp. Neurol., 2001, 431, 331). Tonic activation of A2A receptors decreases the affinity of D2 receptors to dopamine and antagonism of A2A receptors facilitates dopaminergic signalling (Curr. Pharm. Des., 2008, 14, 1468). […] Male Sprague-Dawley rats (200-250 g) were housed in groups with a 12 h light/dark cycle (lights on at 07.00), at an ambient temperature of 21±2° C. and with standard pelleted diet and water adlibitum. Testing was carried out in the light phase. On the day of the experiment, animals were habituated to the locomotor cages for a 60-minute period. Subsequently, they were dosed with vehicle or Example 39 (0.1, 0.3, 1 and 3 mg/kg) by the oral route and returned to the appropriate locomotor cage. Example 39 was formulated in a vehicle of 10% DMAC, 10% solutol (Kolliphor HS15) and 80% water (v/v/v). […] Locomotor activity was assessed for a 2 h period after caffeine treatment. […] SEMs were calculated from the residuals of the statistical model. […]

T1 sequence (Q9Y2T5 whole entry): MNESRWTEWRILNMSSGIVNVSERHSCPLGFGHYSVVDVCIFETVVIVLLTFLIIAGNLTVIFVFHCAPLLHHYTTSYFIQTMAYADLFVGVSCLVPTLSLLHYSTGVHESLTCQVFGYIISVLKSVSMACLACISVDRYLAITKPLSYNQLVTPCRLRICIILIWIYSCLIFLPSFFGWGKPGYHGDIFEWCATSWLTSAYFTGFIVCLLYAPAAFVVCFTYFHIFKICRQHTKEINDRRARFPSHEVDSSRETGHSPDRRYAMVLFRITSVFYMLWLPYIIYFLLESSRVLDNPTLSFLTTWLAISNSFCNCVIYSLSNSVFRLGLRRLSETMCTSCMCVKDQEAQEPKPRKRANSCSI

Turning to `Cc1nn(-c2cc(Cc3cc(F)cc(C(F)(F)F)c3)ccn2)c(CO)c1C(N)=O` [Example 39, 1-(4-(3-fluoro-5-(trifluoromethyl)benzyl)pyridin-2-yl)-5-(hydroxymethyl)-3-methyl-1H-pyrazole-4-carboxamide], the Emax – broadly, the size of the effect at its maximum, as opposed to the concentration needed – at human GPR52 was found to be 101%. The bioavailability (usually dose-corrected exposure relative to a reference, in per cent) in data set [1] worked out at 77.4 ± 14.9%. Further, the “effect on caffeine-induced hyperlocomotor response” value in data set [2] was “dose-dependent reduction”.

With `CNC(=O)c1cnn(-c2cc(Cc3cc(F)cc(C(F)(F)F)c3)ccn2)n1` [Example 56, 2-(4-(3-fluoro-5-(trifluoromethyl)benzyl)pyridin-2-yl)-N-methyl-2H-1,2,3-triazole-4-carboxamide], at human GPR52, the EC50 was 100 nM and the maximum response (Emax) came to 84%.

Consider `CNC(=O)c1nn(-c2cc(Cc3cc(F)cc(C(F)(F)F)c3)ccn2)cc1C` [Example 57, 1-(4-(3-fluoro-5-(trifluoromethyl)benzyl)pyridin-2-yl)-N,4-dimethyl-1H-pyrazole-3-carboxamide], for which, at human GPR52, the EC50 was 3.16 nM and the Emax came to 87%.

Consider `CNC(=O)c1nn(-c2cc(Cc3cc(F)cc(C(F)(F)F)c3)ccn2)nc1C` [Example 58, 2-(4-(3-fluoro-5-(trifluoromethyl)benzyl)pyridin-2-yl)-N,5-dimethyl-2H-1,2,3-triazole-4-carboxamide], for which, at human GPR52, the EC50 is 15.8 nM and the Emax worked out at 92%.

Take `Cc1nn(-c2ccnc(C(O)c3cc(F)cc(C(F)(F)F)c3)c2)cc1C(N)=O` (centres unmarked) [Example 59, 1-(2-((3-fluoro-5-(trifluoromethyl)phenyl)(hydroxy)methyl)pyridin-4-yl)-3-methyl-1H-pyrazole-4-carboxamide]: at human GPR52, the EC50 was 200 nM and the Emax was 79%.
